Literature values in paper PMC9841982 (ACS Medicinal Chemistry Letters, 2022).

What was measured:
[1] = test system: murine pancreatic islets; settings: free TAK-242, murine islet transplantation
[2] = authors' earlier work with TAK-242

- sulfonamide bond stability [2]: relatively stable
Structure (SMILES): CCOC(=O)C1=CCCC[C@H]1S(=O)(=O)Nc1ccc(F)cc1Cl [TAK-242, ethyl (6R)-6-[N-(2-Chloro-4-fluorophenyl)sulfamoyl]cyclohex-1-ene-1-carboxylate]
- effect of free drug on islets and transplant outcome [1]: reduced sterile inflammation-mediated stress in islets during isolation and promoted successful transplant outcomes
